{"source": "patent US20200206198A1", "about": "“CFTR CHANNEL ACTIVATOR FOR USE IN THE TREATMENT AND/OR PREVENTION OF GLUTEN SENSITIVITY CONDITIONS” (priority 2017, published 2020)", "key": {"[1]": {"test_system": "gliadin-sensitive BALB/c mice", "experiment": "Gliadin-sensitive BALB/c mice, 4-week oral gliadin challenge", "format": "in vivo, mouse", "protocol": "In the first model, BALB/c mice are fed for at least three generations with a gluten-free diet, followed by a 4-week gliadin challenge, as described (Papista, C., et al. 2012). Ten week-old BALB/c mice were orally challenged for 4 weeks with gliadin or vehicle in the presence or absence of 2 mM VX-770 administered intraperitoneally 15 min prior to gliadin challenge (n=10 per treatment group). […] Moreover, VX-770 opposed the ability of gliadin to increase TG2 protein levels (FIG. 9c) and ERK 1/2 phosphorylation (FIG. 9d).\nBALB/c mice (background BALB/cAnNCrl) were purchased from Charles River (Varese, Italy). Three generation gluten-free diet (Mucedola srl, Milan), male and female, were challenged with gliadin for 4 weeks. To assess the effects of VX-770 into a controlled environment, mice were challenged via gavage for 4 weeks with i) vehicle alone or ii) gliadin (SigmaAldich, G3375) (5 mg/daily for one week and then 5 mg/daily thrice a week for 3 weeks)(Moon, S. H., et al. 2016) in the presence or absence of intraperitoneal VX770 (0.075 mg/mice in 100 μl DMSO, 2 mM, SelleckchemS1144) or genistein (25 mg\\kg in 100μ1 DMSO, SigmaAldrich), administered 15 minutes prior gliadin challenge (n=10 mice per group of treatment).\nAt the end of the last daily treatment, mice were anesthetized with Avertine (tribromoethanol, 250 mg/kg, Sigma Aldrich, T48402) and then killed; the intestines were collected for CFTR function analysis or stored for all described techniques.\nChambers for mounting either transwell cell cultures or mouse tissue biopsies were obtained from Physiologic Instruments (model P2300, San Diego, Calif., USA). Chamber solution was buffered by bubbling with identical Ringer solution on both sides and were maintained at 37° C., vigorously stirred, and gassed with 95% O2/[…]. Cells or tissues were short circuited using Ag/AgCl agar electrodes. A basolateral-to-apical chloride gradient was established by replacing NaCl with Na-gluconate in the apical (luminal) compartment to create a driving force for CFTR-dependent Cl secretion. To measure stimulated Isc, the changed sodium gluconate solution was supplied with 100 μM amiloride. Agonists (forskolin) were added to the bathing solutions as indicated (for a minimum 5 min of observation under each condition) to activate CFTR channels present at the apical surface of the epithelium (either cell surface or lumen side of the tissue) and CFTRInh-172 (10 μM) was added to the mucosal bathing solution to block CFTR-dependent Isc. Shortcircuit current (expressed as Isc (μA/cm2)) and resistance were acquired or calculated using the VCC600 transepithelial clamp from Physiologic Instruments and the Acquire & Analyze 2.3 software for data acquisition (Physiologic Instruments), as previously described Tosco A, et al. 2016; Romani, L. et al. 2017).\nThe whole lysate or membrane fraction proteins of cell lines and mice intestine homogenates were obtained from treated and untreated cells or mice as described. The equal amount of protein were resolved by SDS-PAGE gel and blotted with antibodies against: SQSTM1, (Sigma Aldrich, 108k4767) 1:1000, PPARγ (Santa Cruz Biotechnology, sc7273) 1:500, BECN1 (Abcam, ab58878) 1:1000, CFTR clone M3A7 (Abcam, ab4067) 1:500, phospho-ERK1/2 (php42/44, Cell Signaling Technology, #91101) 1:1000, UVRAG (Santa Cruz Biotechnology sc8215) 1:1000, NHERF-1 (BD, 611161) 1:1000, EZRIN (BD, 610603) 1:1000, hVps34 (SigmaV9764) 1:300, biotin (Abcam, ab1227) 1:2000, PKAr2a (BD, 610625) 1:500, Ubiquitin (Cell Signaling clone P4D1, #3936) 1:1000, CHIP (Calbiochem PC711) 1:500, Caspase-1 p10 (M-20) (Santa Cruz Biotechnology, sc-514) 1:200, NLRP3 (Abcam, ab4207), 1:500, IDO1 (monoclonal; cv152) 1:1000^[80], used as primary antibodies. Normalization was performed by probing the membrane with anti-β-actin (Cell Signaling, #4970) 1:1000, anti-Gapdh (Sigma-Aldrich, G8795) 1:1000 and anti-flottilin (Abcam ab15148) 1:1000 antibodies. […]"}, "[2]": {"test_system": "non-obese diabetic (NOD) female mice", "experiment": "NOD mice orally challenged with gliadin", "format": "in vivo, mouse", "excerpt": "In the second model of gluten sensitivity, the Applicant resorted to non-obese diabetic (NOD) female mice, which spontaneously develop autoimmune type-1 diabetes (Maurano, F., et al. 2005).\nBALB/c mice (background BALB/cAnNCrl) were purchased from Charles River (Varese, Italy). Three generation gluten-free diet (Mucedola srl, Milan), male and female, were challenged with gliadin for 4 weeks. […]\nChambers for mounting either transwell cell cultures or mouse tissue biopsies were obtained from Physiologic Instruments (model P2300, San Diego, Calif., USA). […] Shortcircuit current (expressed as Isc (μA/cm2)) and resistance were acquired or calculated using the VCC600 transepithelial clamp from Physiologic Instruments and the Acquire & Analyze 2.3 software for data acquisition (Physiologic Instruments), as previously described Tosco A, et al. 2016; Romani, L. et al. 2017).\nELISA analysis was performed on tissue samples using standard ELISA kits (R&D Systems) for IL-15, IL-17A, INFγ IL21, IL10, TGF-β. […] Samples were read in triplicate at 450 nm in a Microplate Reader (BioRad, Milan, Italy) using Microplate Manager 5.2.1 software. Values were normalized to protein concentration evaluated by Bradford analysis. […]"}, "[3]": {"conditions": "BALB/c mice small intestine homogenates"}}}
{"compound": "CC(C)(C)c1cc(C(C)(C)C)c(NC(=O)c2c[nH]c3ccccc3c2=O)cc1O", "note": "[VX-770, N-(2,4-di-tert-butyl-5-hydroxyphenyl)-4-oxo-1,4-dihydroquinoline-3-carboxamide]", "values": [{"measurement": "effect on gliadin induced expression of IL-21", "setting": "[1]; BALB/c mice", "value": "inhibited"}, {"measurement": "effect on gliadin-induced NLRP3 expression", "setting": "[1]; BALB/c mice small intestine", "value": "counteracted"}, {"measurement": "effect on gliadin-induced caspase 1 cleavage", "setting": "[1]; BALB/c mice small intestine", "value": "counteracted"}, {"measurement": "effect on increased NKG2D expression by intraepithelial lymphocytes", "setting": "[1]; BALB/c mice small intestine", "value": "counteracted"}, {"measurement": "Th1 transcription factor Tbet transcript", "setting": "[1]; [3]", "value": "downregulated"}, {"measurement": "Th17 transcription factor Rorc transcript", "setting": "[1]; [3]", "value": "downregulated"}, {"measurement": "effect on gliadin-induced decrease of CFTR function in small intestines", "setting": "[1]; BALB/c mice, 2 mM VX-770 i.p. 15 min prior to gliadin", "value": "inhibitable"}, {"measurement": "effect on gliadin-induced ERK 1/2 phosphorylation", "setting": "[1]; BALB/c mice, VX-770 i.p.", "value": "opposed"}, {"measurement": "effect on gliadin-induced increase of TG2 protein levels", "setting": "[1]; BALB/c mice, VX-770 i.p.", "value": "opposed"}, {"measurement": "effect on gliadin-induced increase of IFN-γ mRNA and protein", "setting": "[1]; BALB/c mice, p<0.001", "value": "prevented"}, {"measurement": "effect on gliadin-induced increase of IL-15 mRNA and protein", "setting": "[1]; BALB/c mice, p<0.001", "value": "prevented"}, {"measurement": "effect on gliadin-induced increase of IL-17A mRNA and protein", "setting": "[1]; BALB/c mice, p<0.001", "value": "prevented"}, {"measurement": "IL-10 production", "setting": "[1]; gliadin-sensitive mice, ELISA", "value": "restored"}, {"measurement": "TGF-β production", "setting": "[1]; gliadin-sensitive mice, ELISA", "value": "restored"}, {"measurement": "immunoprotective effects (IL-15, IL-17A, IFN-γ protein)", "setting": "[2]; NOD mice challenged with gliadin after diabetes onset", "value": "immunoprotective effects of VX-770 were confirmed"}, {"measurement": "effect on gliadin-induced reduction in CFTR function", "setting": "[2]; NOD mice, VX-770 i.p.", "value": "inhibitable"}]}
